Test results: PubChem BioAssay AID256 (DTP/NCI, 2004)
Inconclusive results and toxic doses are left out. The calls were made as follows: active = survival T/C of 150% or more; inactive = T/C below 125% in these data.

Test system: CD2F1 mice, L1210 leukemia ip, survival T/C
Test: NCI In Vivo Anticancer Drug Screen. Data for tumor model L1210 Leukemia (intraperitoneal) in CD2F1 (CDF1) mice
Conditions: higher = longer survival
Outline: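 Ratio T/C, where T is the treated-group value and C the vehicle-dosed control value, from mice implanted with a transplantable tumor.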

[1] = endpoint: mean survival time, dose: 100.0 mg/kg/injection, schedule: Q01DX001 (ip), vehicle: saline with Tween-80
[2] = endpoint: mean survival time, dose: 100.0 mg/kg/injection, schedule: Q01DX009 (ip), vehicle: saline with Tween-80
[3] = endpoint: mean survival time, dose: 200.0 mg/kg/injection, schedule: Q01DX001 (ip), vehicle: saline with Tween-80
[4] = endpoint: mean survival time, dose: 400.0 mg/kg/injection, schedule: Q01DX001 (ip), vehicle: saline with Tween-80
[5] = endpoint: mean survival time, dose: 100.0 mg/kg/injection, schedule: Q04DX003 (ip), vehicle: saline with Tween-80
[6] = endpoint: mean survival time, dose: 200.0 mg/kg/injection, schedule: Q04DX003 (ip), vehicle: saline with Tween-80
[7] = endpoint: mean survival time, dose: 400.0 mg/kg/injection, schedule: Q04DX003 (ip), vehicle: saline with Tween-80
[8] = endpoint: mean survival time, dose: 200.0 mg/kg/injection, schedule: Q01DX009 (ip), vehicle: saline with Tween-80
[9] = endpoint: mean survival time, dose: 400.0 mg/kg/injection, schedule: Q01DX009 (ip), vehicle: saline with Tween-80
[10] = endpoint: mean survival time, dose: 12.5 mg/kg/injection, schedule: Q01DX009 (ip), vehicle: saline with Tween-80
[11] = endpoint: mean survival time, dose: 25.0 mg/kg/injection, schedule: Q01DX009 (ip), vehicle: saline with Tween-80
[12] = endpoint: mean survival time, dose: 50.0 mg/kg/injection, schedule: Q01DX009 (ip), vehicle: saline with Tween-80
[13] = endpoint: mean survival time, dose: 50.0 mg/kg/injection, schedule: Q04DX003 (ip), vehicle: saline with Tween-80

Measured: T/C

Cc1cc(O)c(C(C)C)cc1N(C)C (tested in a mixture with another compound)
inactive: endpoint: mean survival time, dose: 0.13 mg/kg/injection, schedule: Q01DX009 (ip), vehicle: saline 100 % of control | endpoint: mean survival time, dose: 0.25 mg/kg/injection, schedule: Q01DX009 (ip), vehicle: saline 106 % of control | endpoint: mean survival time, dose: 0.25 mg/kg/injection, schedule: Q04DX003 (ip), vehicle: saline 110 % of control | endpoint: mean survival time, dose: 0.5 mg/kg/injection, schedule: Q01DX001 (ip), vehicle: saline 97 % of control | endpoint: mean survival time, dose: 0.5 mg/kg/injection, schedule: Q01DX009 (ip), vehicle: saline 93 % of control | endpoint: mean survival time, dose: 0.5 mg/kg/injection, schedule: Q04DX003 (ip), vehicle: saline 87 % of control | endpoint: mean survival time, dose: 1.0 mg/kg/injection, schedule: Q01DX001 (ip), vehicle: saline 97 % of control

COCC/C(COC)=N/N
inactive: [1] 104 % of control | [2] 94 % of control | [3] 108 % of control | [4] 108 % of control

FC(F)(F)c1ccc2ccc3ccc(Cl)cc3c2c1
inactive: endpoint: mean survival time, dose: 37.5 mg/kg/injection, schedule: Q01DX009 (ip), vehicle: saline 97 % of control | endpoint: mean survival time, dose: 75.0 mg/kg/injection, schedule: Q01DX009 (ip), vehicle: saline 94 % of control | endpoint: mean survival time, dose: 75.0 mg/kg/injection, schedule: Q04DX003 (ip), vehicle: saline 91 % of control | endpoint: mean survival time, dose: 150.0 mg/kg/injection, schedule: Q01DX009 (ip), vehicle: saline 91 % of control | endpoint: mean survival time, dose: 150.0 mg/kg/injection, schedule: Q04DX003 (ip), vehicle: saline 95 % of control | endpoint: mean survival time, dose: 300.0 mg/kg/injection, schedule: Q04DX003 (ip), vehicle: saline 97 % of control

COc1cccc(CC2NCCc3c2[nH]c2ccccc32)c1 (centres undefined)
inactive: endpoint: mean survival time, dose: 25.0 mg/kg/injection, schedule: Q01DX001 (ip), vehicle: saline with Tween-80 98 % of control | endpoint: mean survival time, dose: 50.0 mg/kg/injection, schedule: Q01DX001 (ip), vehicle: saline with Tween-80 90 % of control | [1] 87 % of control

COC(=O)CCC1c2[nH]c3ccccc3c2CCN1C (centres undefined)
inactive: [5] 93 % of control | [6] 102 % of control | [7] 102 % of control

Cc1ccc([N+](=O)[O-])c2ccccc12
inactive: [2] 91 % of control | [5] 88 % of control | [8] 91 % of control | [6] 90 % of control | [9] 95 % of control | [7] 94 % of control

CSC(=O)NC(=O)c1ccccc1
inactive: [5] 100 % of control | [6] 103 % of control | [7] 105 % of control

N#CCCCN1CCCCC1
inactive: endpoint: mean survival time, dose: 6.25 mg/kg/injection, schedule: Q01DX009 (ip), vehicle: saline with Tween-80 103 % of control | endpoint: mean survival time, dose: 6.25 mg/kg/injection, schedule: Q04DX003 (ip), vehicle: saline 89 % of control | [10] 97 % of control | endpoint: mean survival time, dose: 12.5 mg/kg/injection, schedule: Q04DX003 (ip), vehicle: saline 98 % of control | [11] 100 % of control | endpoint: mean survival time, dose: 25.0 mg/kg/injection, schedule: Q04DX003 (ip), vehicle: saline 93 % of control

O=C(NCCC1CC=CCC1)c1ccccc1 (centres undefined)
inactive: [2] 97 % of control | [8] 95 % of control | [9] 103 % of control

CC(=O)Nc1ccc(N=CN(C)C)cc1
inactive: [5] 95 % of control | [6] 95 % of control | [7] 112 % of control

NCC(OCC(=O)O)C(Cl)(Cl)Cl (centres undefined)
inactive: [5] 101 % of control | [6] 96 % of control | [7] 101 % of control

C1CC2OC2CCC2OC12 (centres undefined)
inactive: endpoint: mean survival time, dose: 100.0 mg/kg/injection, schedule: Q01DX009 (ip), vehicle: saline sonified 103 % of control | [5] 100 % of control | endpoint: mean survival time, dose: 200.0 mg/kg/injection, schedule: Q01DX009 (ip), vehicle: saline sonified 104 % of control | [6] 97 % of control | endpoint: mean survival time, dose: 400.0 mg/kg/injection, schedule: Q01DX009 (ip), vehicle: saline sonified 104 % of control | [7] 103 % of control

N[C@@H](Cc1c[nH]c2ccccc12)C(=O)Nc1nncs1
inactive: endpoint: median survival time, dose: 8.35 mg/kg/injection, schedule: Q03HX027 (ip), vehicle: saline 96 % of control | endpoint: median survival time, dose: 16.7 mg/kg/injection, schedule: Q03HX027 (ip), vehicle: saline 100 % of control | endpoint: median survival time, dose: 33.4 mg/kg/injection, schedule: Q03HX027 (ip), vehicle: saline 103 % of control | endpoint: median survival time, dose: 47.88 mg/kg/injection, schedule: Q03HX027 (ip), vehicle: saline 107 % of control | endpoint: median survival time, dose: 48.0 mg/kg/injection, schedule: Q03HX027 (ip), vehicle: saline 108 % of control | endpoint: median survival time, dose: 50.0 mg/kg/injection, schedule: Q01DX009 (ip), vehicle: saline 98 % of control | endpoint: median survival time, dose: 66.7 mg/kg/injection, schedule: Q03HX027 (ip), vehicle: saline 103 % of control | endpoint: median survival time, dose: 79.8 mg/kg/injection, schedule: Q03HX027 (ip), vehicle: saline 113 % of control | endpoint: median survival time, dose: 79.92 mg/kg/injection, schedule: Q03HX027 (ip), vehicle: saline 113 % of control | endpoint: median survival time, dose: 100.0 mg/kg/injection, schedule: Q01DX009 (ip), vehicle: saline 97 % of control | endpoint: median survival time, dose: 133.2 mg/kg/injection, schedule: Q03HX027 (ip), vehicle: saline 116 % of control | endpoint: median survival time, dose: 200.0 mg/kg/injection, schedule: Q01DX009 (ip), vehicle: saline 105 % of control | endpoint: median survival time, dose: 222.0 mg/kg/injection, schedule: Q03HX027 (ip), vehicle: saline 116 % of control | endpoint: median survival time, dose: 369.45 mg/kg/injection, schedule: Q03HX027 (ip), vehicle: saline 87 % of control | endpoint: median survival time, dose: 400.0 mg/kg/injection, schedule: Q01DX009 (ip), vehicle: saline 120 % of control

O=C1OC(=O)C2C3CC(C(Br)C3Br)C12 (centres undefined)
inactive: endpoint: mean survival time, dose: 100.0 mg/kg/injection, schedule: Q01DX001 (ip), vehicle: saline 97 % of control | [2] 106 % of control | endpoint: mean survival time, dose: 200.0 mg/kg/injection, schedule: Q01DX001 (ip), vehicle: saline 98 % of control | [8] 104 % of control | endpoint: mean survival time, dose: 400.0 mg/kg/injection, schedule: Q01DX001 (ip), vehicle: saline 97 % of control | [9] 101 % of control

C=CCNC(=S)NCCO
inactive: [12] 97 % of control | [13] 111 % of control | [2] 100 % of control | [5] 103 % of control | [8] 94 % of control | [6] 103 % of control

CN(C)CC1CCCCCC(Br)C1O (centres undefined)
inactive: endpoint: mean survival time, dose: 75.0 mg/kg/injection, schedule: Q01DX001 (ip), vehicle: saline 100 % of control | endpoint: mean survival time, dose: 150.0 mg/kg/injection, schedule: Q01DX001 (ip), vehicle: saline 94 % of control

O=C(O)c1ccccc1CCl
inactive: [5] 103 % of control | [6] 108 % of control | [7] 108 % of control

Cc1ccc(NC(=O)OCCOc2ccc(Cl)cc2)cc1C
inactive: [12] 96 % of control | [2] 92 % of control | [8] 87 % of control

O=S(=O)(O)C1CCC[N-]C1.O=S(=O)(O)C1CCC[N-]C1.[Cl][Pt+2]([Cl])([Cl])[Cl] (centres undefined)
inactive: endpoint: mean survival time, dose: 12.5 mg/kg/injection, schedule: Q01DX009 (ip), vehicle: water 102 % of control | endpoint: mean survival time, dose: 25.0 mg/kg/injection, schedule: Q01DX009 (ip), vehicle: water 102 % of control | endpoint: mean survival time, dose: 50.0 mg/kg/injection, schedule: Q01DX009 (ip), vehicle: water 105 % of control | endpoint: mean survival time, dose: 100.0 mg/kg/injection, schedule: Q01DX009 (ip), vehicle: water 110 % of control

O=C(CBr)c1cccc(OC(=O)c2ccccc2)c1
inactive: [10] 100 % of control | endpoint: mean survival time, dose: 12.5 mg/kg/injection, schedule: Q04DX003 (ip), vehicle: saline with Tween-80 107 % of control | [11] 100 % of control | endpoint: mean survival time, dose: 25.0 mg/kg/injection, schedule: Q04DX003 (ip), vehicle: saline with Tween-80 102 % of control | [13] 113 % of control

Cc1c(Cl)cccc1N=Cc1ccc2c(c1)OCO2
inactive: endpoint: mean survival time, dose: 100.0 mg/kg/injection, schedule: Q04DX003 (ip), vehicle: Klucel (hydroxypropylcellulose) (HPC) 102 % of control | endpoint: mean survival time, dose: 200.0 mg/kg/injection, schedule: Q04DX003 (ip), vehicle: Klucel (hydroxypropylcellulose) (HPC) 96 % of control | endpoint: mean survival time, dose: 400.0 mg/kg/injection, schedule: Q04DX003 (ip), vehicle: Klucel (hydroxypropylcellulose) (HPC) 102 % of control

S=C1SCCN1C1CCCCC1
inactive: [2] 102 % of control | [5] 92 % of control | [8] 96 % of control | [6] 96 % of control | [9] 93 % of control | [7] 92 % of control

O=C([O][Sb]([O]C(=O)C(Cl)Cl)([c]1ccccc1)([c]1ccccc1)[c]1ccccc1)C(Cl)Cl
inactive: [5] 92 % of control | [6] 88 % of control

CS(=O)(=O)c1cnnc2ccccc12
inactive: [5] 98 % of control | [6] 93 % of control | [7] 86 % of control

N#CC(/C=C/c1ccccc1)NCC(O)c1ccccc1 (centres undefined)
inactive: [1] 97 % of control | [3] 101 % of control | [4] 93 % of control
